From ChEMBL document CHEMBL1201862, “PubChem BioAssay data set” (2004)
Activity calls are given as the source filed them.

How the values were obtained:
[1] = Counterscreen for AddAB inhibitors: absorbance-based bacterial cell-based high throughput dose response assay for inhibitors of bacterial viability. [Related pubchem assays (depositor defined):AID435030, AID449728, AID449731, AID488942, AID488955, AID488956]; type: functional
[2] = molecular target: Photoreceptor-specific nuclear receptor (Homo sapiens, UniProt Q9Y5X4); type: functional, cell-based;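 further: CHO-S cells with Gal4-NCOR and VP16-NR2E3 two-hybrid luciferase reporter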
Chain of Photoreceptor-specific nuclear receptor (Q9Y5X4 whole entry, the tested form may be a part): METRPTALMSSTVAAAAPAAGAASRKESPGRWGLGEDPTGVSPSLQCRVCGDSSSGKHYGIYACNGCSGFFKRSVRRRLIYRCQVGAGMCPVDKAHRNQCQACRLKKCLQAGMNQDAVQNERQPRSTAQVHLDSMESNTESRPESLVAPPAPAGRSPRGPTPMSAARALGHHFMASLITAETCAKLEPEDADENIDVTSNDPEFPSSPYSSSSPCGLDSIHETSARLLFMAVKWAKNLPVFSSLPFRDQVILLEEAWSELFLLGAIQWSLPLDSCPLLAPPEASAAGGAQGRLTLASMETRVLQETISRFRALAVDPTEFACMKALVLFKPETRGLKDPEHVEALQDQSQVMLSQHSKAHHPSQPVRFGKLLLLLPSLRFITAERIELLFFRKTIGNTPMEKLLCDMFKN

Exodeoxyribonuclease V = molecular target: T1, Exodeoxyribonuclease V (Escherichia coli (strain K12), UniProt P04993+P07648+P08394); test: E. coli RecBCD inhibitors, dose response, counter-screen for AddAB inhibitor project, absorbance, V66 E. coli, mutant T4 phage (AID 492957); type: functional, cell-based, Escherichia coli str. K-12 substr. MG1655
T1 sequence (P04993 whole entry): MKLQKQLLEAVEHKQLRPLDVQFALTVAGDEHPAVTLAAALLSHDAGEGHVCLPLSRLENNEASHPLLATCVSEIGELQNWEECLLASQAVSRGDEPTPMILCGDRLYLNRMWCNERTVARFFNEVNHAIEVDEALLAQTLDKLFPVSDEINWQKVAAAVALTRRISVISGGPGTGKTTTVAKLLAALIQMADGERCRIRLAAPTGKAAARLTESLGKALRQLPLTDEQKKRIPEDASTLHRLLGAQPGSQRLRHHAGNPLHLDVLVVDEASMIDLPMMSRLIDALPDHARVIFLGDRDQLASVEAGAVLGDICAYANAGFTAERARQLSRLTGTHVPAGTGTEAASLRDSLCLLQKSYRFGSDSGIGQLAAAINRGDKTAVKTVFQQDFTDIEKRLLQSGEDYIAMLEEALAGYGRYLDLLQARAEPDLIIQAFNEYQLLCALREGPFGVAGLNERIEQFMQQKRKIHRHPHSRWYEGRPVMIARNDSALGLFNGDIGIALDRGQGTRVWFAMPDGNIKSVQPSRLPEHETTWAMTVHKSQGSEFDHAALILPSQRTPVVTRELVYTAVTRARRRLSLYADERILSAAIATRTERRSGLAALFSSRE
T1 sequence (P07648 whole entry): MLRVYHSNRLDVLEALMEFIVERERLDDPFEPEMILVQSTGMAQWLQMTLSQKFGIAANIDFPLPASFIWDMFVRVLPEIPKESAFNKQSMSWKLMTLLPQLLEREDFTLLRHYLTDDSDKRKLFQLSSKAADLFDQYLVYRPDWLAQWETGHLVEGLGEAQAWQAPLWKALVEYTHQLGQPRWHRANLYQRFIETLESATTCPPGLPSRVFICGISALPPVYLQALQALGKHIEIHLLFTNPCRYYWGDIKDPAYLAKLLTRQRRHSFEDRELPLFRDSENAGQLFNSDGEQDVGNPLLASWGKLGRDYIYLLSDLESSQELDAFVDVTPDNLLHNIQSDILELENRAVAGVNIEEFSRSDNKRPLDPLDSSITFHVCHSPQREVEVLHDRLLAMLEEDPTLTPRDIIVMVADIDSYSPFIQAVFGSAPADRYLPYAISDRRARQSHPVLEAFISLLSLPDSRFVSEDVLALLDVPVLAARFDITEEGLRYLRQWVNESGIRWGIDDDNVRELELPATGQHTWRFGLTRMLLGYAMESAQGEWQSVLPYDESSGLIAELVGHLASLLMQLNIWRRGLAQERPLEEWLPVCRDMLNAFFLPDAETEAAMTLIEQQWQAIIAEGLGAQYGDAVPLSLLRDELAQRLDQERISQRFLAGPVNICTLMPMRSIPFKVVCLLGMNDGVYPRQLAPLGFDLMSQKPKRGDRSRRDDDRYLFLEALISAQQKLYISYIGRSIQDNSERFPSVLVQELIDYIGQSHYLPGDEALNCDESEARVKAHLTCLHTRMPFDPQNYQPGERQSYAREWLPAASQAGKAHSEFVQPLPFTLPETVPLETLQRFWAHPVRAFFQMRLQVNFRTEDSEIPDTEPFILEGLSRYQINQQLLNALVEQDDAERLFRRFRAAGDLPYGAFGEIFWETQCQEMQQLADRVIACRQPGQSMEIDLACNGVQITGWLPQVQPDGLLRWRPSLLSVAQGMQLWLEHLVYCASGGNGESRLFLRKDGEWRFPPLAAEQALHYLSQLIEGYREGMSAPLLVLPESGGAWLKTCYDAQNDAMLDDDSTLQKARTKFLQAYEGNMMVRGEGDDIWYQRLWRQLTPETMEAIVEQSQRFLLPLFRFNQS
T1 sequence (P08394 whole entry): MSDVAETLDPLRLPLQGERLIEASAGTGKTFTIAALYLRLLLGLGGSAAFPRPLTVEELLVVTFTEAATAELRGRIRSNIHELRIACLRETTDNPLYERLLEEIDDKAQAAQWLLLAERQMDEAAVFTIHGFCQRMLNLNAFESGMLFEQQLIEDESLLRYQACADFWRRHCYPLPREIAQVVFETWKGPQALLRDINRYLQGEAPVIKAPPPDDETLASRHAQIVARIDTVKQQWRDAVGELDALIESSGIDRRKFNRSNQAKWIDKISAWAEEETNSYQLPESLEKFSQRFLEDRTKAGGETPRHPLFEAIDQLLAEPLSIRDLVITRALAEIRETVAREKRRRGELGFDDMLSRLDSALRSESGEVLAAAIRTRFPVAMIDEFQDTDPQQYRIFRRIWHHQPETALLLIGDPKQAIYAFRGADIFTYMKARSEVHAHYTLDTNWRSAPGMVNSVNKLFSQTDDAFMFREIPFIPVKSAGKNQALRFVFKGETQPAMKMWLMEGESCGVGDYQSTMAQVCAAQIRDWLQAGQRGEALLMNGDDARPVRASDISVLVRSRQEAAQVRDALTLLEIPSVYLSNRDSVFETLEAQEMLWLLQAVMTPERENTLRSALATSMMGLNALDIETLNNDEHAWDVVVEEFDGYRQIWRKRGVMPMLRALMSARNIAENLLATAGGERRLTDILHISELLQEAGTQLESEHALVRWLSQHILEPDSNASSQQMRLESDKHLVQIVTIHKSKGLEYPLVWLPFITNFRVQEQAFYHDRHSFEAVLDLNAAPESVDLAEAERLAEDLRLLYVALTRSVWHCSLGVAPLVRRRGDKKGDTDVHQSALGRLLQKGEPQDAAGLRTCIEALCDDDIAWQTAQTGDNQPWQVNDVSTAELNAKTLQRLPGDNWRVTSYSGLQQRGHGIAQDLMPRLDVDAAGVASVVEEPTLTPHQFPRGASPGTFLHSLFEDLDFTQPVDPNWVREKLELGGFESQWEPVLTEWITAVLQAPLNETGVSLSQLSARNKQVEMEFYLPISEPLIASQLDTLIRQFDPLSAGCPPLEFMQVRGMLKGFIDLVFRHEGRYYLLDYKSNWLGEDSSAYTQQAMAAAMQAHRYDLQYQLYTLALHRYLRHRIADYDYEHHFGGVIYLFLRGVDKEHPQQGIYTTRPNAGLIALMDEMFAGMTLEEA

[3] = HepG2 cell cytotoxicity, dose response, cytotoxicity control for Shn3 inhibitor project, CellTiter-Glo, cherry-picked (AID 624134); type: functional, cell-based
[4] = Shn3 3'UTR reporter inhibitors, dose response, cell-based, Clone20 osteoblasts, firefly luciferase, cherry-picked (AID 624132); type: functional;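 further: firefly luciferase luminescence from reporter carrying the Shn3 3'UTR in osteoblasts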
[5] = molecular target: T2, Probable nicotinate-nucleotide adenylyltransferase (Staphylococcus aureus (strain N315), UniProt P65502); type: functional, Staphylococcus aureus subsp. aureus N315; conditions: read-out: IC50_Mean;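 on IC50 Mean: confirmatory dose-response retesting of NadD inhibitor hits first found in an ultra-high-throughput screen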
T2 sequence (P65502 whole entry): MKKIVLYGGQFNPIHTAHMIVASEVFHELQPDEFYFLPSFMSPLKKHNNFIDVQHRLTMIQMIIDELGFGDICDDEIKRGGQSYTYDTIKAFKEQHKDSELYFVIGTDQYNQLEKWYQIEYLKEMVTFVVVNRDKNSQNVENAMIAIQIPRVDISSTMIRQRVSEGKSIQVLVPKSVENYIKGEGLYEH

[6] = molecular target: T2, Probable nicotinate-nucleotide adenylyltransferase; type: functional, Staphylococcus aureus subsp. aureus N315
[7] = cytotoxicity toward DRD oncogenic fibroblasts, dose response, cell-based, non-viral oncogenic, luminescence (AID 1934); type: functional; conditions: Homo sapiens
BJ [8] = test: cytotoxicity toward BJ-TERT-LT-ST fibroblasts, dose response, cell-based, RAS-independent, luminescence (AID 1935); type: functional; conditions: Homo sapiens;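 further: BJ fibroblasts immortalized with TERT plus LT and ST oncogenes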
BJ [9] = test: cytotoxicity toward BJ-TERT fibroblasts, dose response, cell-based, RAS-independent, luminescence (AID 1933); type: functional; conditions: Homo sapiens
BJ [10] = test: cytotoxicity toward Ras-transformed BJeLR fibroblasts, dose response, cell-based, alamar blue fluorescence, cherrypicked samples (AID 2631); type: functional; conditions: Homo sapiens;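 further: confirmatory dose-response assay in RAS-dependent BJ fibroblasts engineered with TERT, LT and ST, with cytotoxicity read by fluorescence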
[11] = molecular target: T3, Replicative DNA helicase DnaB (Mycobacterium tuberculosis, UniProt P9WMR3); test: DnaB intein splicing inhibitors, dose response, biochemical, cell-free fluorescence (AID 449749); type: functional
T3 sequence (P9WMR3 whole entry): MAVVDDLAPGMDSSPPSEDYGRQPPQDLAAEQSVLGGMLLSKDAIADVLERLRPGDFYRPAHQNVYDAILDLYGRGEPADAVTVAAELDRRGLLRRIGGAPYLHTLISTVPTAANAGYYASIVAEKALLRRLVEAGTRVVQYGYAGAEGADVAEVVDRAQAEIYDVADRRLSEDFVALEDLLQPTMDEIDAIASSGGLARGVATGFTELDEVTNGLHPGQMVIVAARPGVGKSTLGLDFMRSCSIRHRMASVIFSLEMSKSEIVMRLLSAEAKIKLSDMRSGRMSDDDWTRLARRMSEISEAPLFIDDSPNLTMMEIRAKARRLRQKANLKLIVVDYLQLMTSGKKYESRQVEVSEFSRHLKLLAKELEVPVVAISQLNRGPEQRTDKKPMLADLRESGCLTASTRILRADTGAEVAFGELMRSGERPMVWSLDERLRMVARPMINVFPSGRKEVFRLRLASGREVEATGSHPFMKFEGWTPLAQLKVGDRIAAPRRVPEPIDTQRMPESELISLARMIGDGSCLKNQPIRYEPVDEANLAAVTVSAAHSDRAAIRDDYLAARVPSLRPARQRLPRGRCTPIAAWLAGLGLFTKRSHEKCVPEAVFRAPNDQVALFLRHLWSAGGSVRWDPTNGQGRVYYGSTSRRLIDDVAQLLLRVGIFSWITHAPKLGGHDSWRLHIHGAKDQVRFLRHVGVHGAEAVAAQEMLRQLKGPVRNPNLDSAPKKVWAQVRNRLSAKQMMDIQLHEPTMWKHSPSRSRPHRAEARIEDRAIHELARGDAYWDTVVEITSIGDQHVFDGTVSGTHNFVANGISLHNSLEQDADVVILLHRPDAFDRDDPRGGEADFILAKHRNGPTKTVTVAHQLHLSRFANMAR

BJ [12] = test: cells; type: functional, cell-based; conditions: Homo sapiens
Protein RecA = molecular target: T4, Protein RecA (Mycobacterium tuberculosis, UniProt P9WHJ3); test: Fluorescence Cell-Free Homogeneous Dose Retest to Identify Inhibitors of RecA-Intein Splicing Activity. [Related pubchem assays (depositor defined):AID2097, AID2223, AID489010, AID492950]; type: functional
T4 sequence (P9WHJ3 whole entry): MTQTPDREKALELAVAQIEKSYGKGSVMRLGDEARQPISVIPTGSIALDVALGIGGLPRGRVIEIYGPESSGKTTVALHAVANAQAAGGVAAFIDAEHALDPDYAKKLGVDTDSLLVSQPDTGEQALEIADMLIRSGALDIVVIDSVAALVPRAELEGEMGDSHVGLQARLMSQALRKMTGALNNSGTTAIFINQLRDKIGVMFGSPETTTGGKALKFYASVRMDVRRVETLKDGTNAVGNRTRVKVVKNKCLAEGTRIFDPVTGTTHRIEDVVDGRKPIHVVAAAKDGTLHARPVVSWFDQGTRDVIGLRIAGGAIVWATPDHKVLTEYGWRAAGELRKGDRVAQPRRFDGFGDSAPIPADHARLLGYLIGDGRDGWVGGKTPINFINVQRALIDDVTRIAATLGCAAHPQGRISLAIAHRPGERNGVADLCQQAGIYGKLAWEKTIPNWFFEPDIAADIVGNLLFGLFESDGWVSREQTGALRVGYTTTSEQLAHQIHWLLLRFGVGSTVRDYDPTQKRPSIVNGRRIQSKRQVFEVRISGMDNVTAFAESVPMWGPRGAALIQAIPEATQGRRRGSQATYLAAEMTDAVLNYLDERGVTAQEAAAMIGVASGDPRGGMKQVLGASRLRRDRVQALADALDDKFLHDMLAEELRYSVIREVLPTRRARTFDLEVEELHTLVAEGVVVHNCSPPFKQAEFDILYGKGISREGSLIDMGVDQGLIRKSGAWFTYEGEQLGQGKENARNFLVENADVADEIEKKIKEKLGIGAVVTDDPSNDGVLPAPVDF

[13] = molecular target: Protein disulfide-isomerase (Homo sapiens, UniProt P07237); test: PDI inhibitors, insulin aggregation turbidity, dose response, biochemical, absorbance, cherry-picked samples (AID 602350); type: functional
Chain of Protein disulfide-isomerase (P07237 whole entry): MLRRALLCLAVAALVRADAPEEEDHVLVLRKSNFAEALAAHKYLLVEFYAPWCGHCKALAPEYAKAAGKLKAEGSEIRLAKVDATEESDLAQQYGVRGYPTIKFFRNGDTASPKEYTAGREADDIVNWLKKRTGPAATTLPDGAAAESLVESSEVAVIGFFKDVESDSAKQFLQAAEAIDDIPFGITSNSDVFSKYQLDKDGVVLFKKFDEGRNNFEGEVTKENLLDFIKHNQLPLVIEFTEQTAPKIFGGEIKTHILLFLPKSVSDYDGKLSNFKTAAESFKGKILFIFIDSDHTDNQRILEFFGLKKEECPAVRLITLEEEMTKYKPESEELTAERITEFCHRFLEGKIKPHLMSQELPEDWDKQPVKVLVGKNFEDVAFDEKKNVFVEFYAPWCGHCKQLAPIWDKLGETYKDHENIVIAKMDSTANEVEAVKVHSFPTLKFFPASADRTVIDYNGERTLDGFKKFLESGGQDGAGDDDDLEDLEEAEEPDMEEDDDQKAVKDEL

SMILES: c1ccc(-c2cc(CSc3nc4ccccc4[nH]3)on2)cc1
- IC50 [1]: > 119 µM (inactive)
- IC50 [2]: 4.61 µM (active)
- IC50 (Exodeoxyribonuclease V): > 119 µM (inactive)
- AC50 [3]: 58.3 µM (active)
- AC50 [4]: 3.76 µM (active)

SMILES: Cc1ccc(NCc2nnc(SCC(=O)c3ccccc3)n2Cc2ccco2)c(C)c1
- IC50 [5]: 23 µM (active)
- IC50 [6]: 12.1 µM (active)

SMILES: COc1cccc(/C=C2\SC(=S)N(CCCC(=O)N(CCO)c3ccccc3)C2=O)c1
- EC50 [7]: 6.07 µM (inconclusive)
- EC50 (BJ [8]): > 75 µM (inconclusive)
- EC50 (BJ [9]): 3.1 µM (inconclusive)
- EC50 (BJ [10]): > 66.7 µM (inactive)
- AC50 [11]: 41.7 µM (active)
- EC50 (BJ [12]): > 150 µM (not active)
- EC50 (Protein RecA): 7.22 µM (active)

SMILES: Cc1c(O)ccc2c(CN3CCN(C/C=C/c4ccccc4)CC3)cc(=O)oc12
- AC50 [13]: 19.5 µM (active)

SMILES: CCOC(=O)C1(CCOc2ccccc2)CCN(Cc2cc(OC)c(O)cc2Cl)CC1
- AC50 [13]: 6.03 µM (active)

SMILES: NC(=O)c1nn(-c2ccccc2)nc1NC(=O)CSc1nnnn1-c1ccc(Cl)cc1
- IC50 [2]: 2.27 µM (active)

SMILES: Cc1cc(O)cc2c1C1CCC3(C)C(=O)CCC3C1C=C2 (stereo not given)
- AC50 [13]: 19.5 µM (active)

SMILES: COc1ccc2c(CC(=O)OCC(=O)N(C)c3c(N)n(Cc4ccccc4)c(=O)[nH]c3=O)coc2c1
- AC50 [13]: 5.45 µM (active)
- AC50 [4]: 21.2 µM (active)
